Data from patent US12397058B2, “Metabolically stable prodrugs” (TSRL, Inc., priority 2018, dated 2025).
Read-outs that look alike come from different tables or passages of the source.

Columns and labels:
hCMV2 GDGRK17 = experiment: Primary CPE reduction assay in HFF cells, hCMV GDGRK17; assay type: cell-based, human Cytomegalovirus; conditions: for EC50: Human betaherpesvirus 5, HFF, read-out: EC50 (50% reduction in the Cytopathic Effect of the virus); for TI (therapeutic index derived from EC50/CC50): hCMV2 GDGRK17, HFF cells
Description: (§1) Screening Assays for HSV-1, HSV-2, CMV, and VZV
(§2) Cells. Human foreskin fibroblast (HFF) cells were prepared from human foreskin tissue. The tissue was incubated at 4° C. for 4 h in Clinical Medium and then placed in phosphate buffered saline (PBS) to remove the red blood cells, and resuspended in trypsin/EDTA solution. The tissue suspension was incubated at 37° C. and gently agitated to disperse the cells, which were collected by centrifugation. Cells were resuspended in 4 ml Clinical Medium and placed in a flask and incubated at 37° C. in a humidified CO2 incubator for 24 h. The media was then replaced with fresh Clinical Medium and the cell growth was monitored daily until a confluent monolayer has formed. The HFF cells were then expanded through serial passages in standard growth medium of MEM with Earl's salts supplemented with 10% FBS and antibiotics. The cells were passaged routinely and used for assays at or below passage 10.
(§3) Primary Cytopathic Effect (CPE) Reduction Assay. Low passage (3-10) HFF cells were trypsinized, counted, and seeded into 96 well tissue culture plates in 0.1 ml of MEM supplemented with 10% FBS. The cells were then incubated for 24 h at 37° C. The media was then removed and 100 μl of MEM containing 2% FBS was added to all but the first row. In the first row, 125 μl of media containing the experimental drug was added in triplicate wells. Media alone was added to both cell and virus control wells. The drug in the first row of wells was then diluted serially 1:5 throughout the remaining. The plates were then incubated for 60 min and 100 μl of a virus suspension was added to each well, excluding cell control wells which received 100 μl of MEM. The plates were then incubated at 37° C. in a CO2 incubator for three days for HSV-1 and HSV-2, 10 days for VZV, or 14 d for CMV. After the incubation period, media was aspirated and the cells stained with crystal violet in formalin for 4 h. The stain was then removed and the plates were rinsed until all excess stain was removed. The plates were allowed to dry for 24 h and the amount of CPE in each row determined using a BioTek Multiplate Autoreader. EC50 and CC50 values were determined by comparing drug treated and untreated cells using a computer program.

VZV Ellen = experiment: microbe, parasite or virus in culture; assay type: cell-based, Vericella Zoster Virus
Description: as §1, §2, §3

HSV1 E377 = experiment: microbe, parasite or virus in culture; assay type: cell-based, Herpes Simplex Virus 1
Description: as §1, §2, §3

HSV2 G = experiment: Primary CPE reduction assay in HFF cells, HSV2 G; assay type: cell-based, Herpes Simplex Virus 2
Description: as §1, §2, §3

mCMV Smith = experiment: Primary CPE reduction assay, mCMV Smith; assay type: cell-based, murine Cytomegalovirus; conditions: for EC50: Murid betaherpesvirus 1, read-out: EC50 (50% reduction in the Cytopathic Effect of the virus)
hCMV1 AD169 = experiment: Primary CPE reduction assay in HFF cells, hCMV AD169; assay type: cell-based, human Cytomegalovirus
Description: as §1, §2, §3

[1] = test system: Human Cytomegalovirus Strain AD169; experiment: Additional study versus Human Cytomegalovirus Strain AD169 in HFF cells (procedures of US 2011/0263535 A1); assay type: cell-based
Description: Additional studies in HFF cells were performed using the procedures as outlined in US Patent Application Publication No: 2011/0263535 A1 with compounds of 120, 121, and 122. Each of the compounds were tested versus Human Cytomegalovirus Strain AD169 in HFF cells using ganciclovir as a comparator.

HSV1 strain DM2.1 = experiment: Primary CPE reduction assay in HFF cells, HSV1 strain DM2.1; assay type: cell-based, Herpes Simplex Virus 1
Description: as §1, §2
Primary Cytopathic Effect (CPE) Reduction Assay. Low passage (3-10) HFF cells were trypsinized, counted, and seeded into 96 well tissue culture plates in 0.1 ml of MEM supplemented with 10% FBS. […] The plates were allowed to dry for 24 h and the amount of CPE in each row determined using a BioTek Multiplate Autoreader. EC50 and CC50 values were determined by comparing drug treated and untreated cells using a computer program.

[2] = Human alphaherpesvirus 1, HFF, read-out: EC50 (50% reduction in the Cytopathic Effect of the virus)
[3] = Human betaherpesvirus 5, AD169, HFF, read-out: EC50 (50% reduction in the Cytopathic Effect of the virus)
[4] = Human Cytomegalovirus Strain AD169 in HFF cells
[5] = Human betaherpesvirus 5, read-out: EC50 (50% reduction in the Cytopathic Effect of the virus), hCMV1 AD169, HFF cells

N.Nc1ccn(C[C@@H](CO)OCP(=O)(O)OCCCS(=O)(=O)CCCCCCCCCCCCCC2CCC2)c(=O)n1 [Compound 122, Ammonium 3-((13-cyclobutyltridecyl)sulfonyl)propyl hydrogen ((((S)-1-(4-amino-2-oxopyrimidin-1(2H)-yl)-3-hydroxypropan-2-yl)oxy)methyl)phosphonate]
EC50 (hCMV2 GDGRK17): < 0.3 nM
TI (therapeutic index derived from EC50/CC50) (hCMV2 GDGRK17): >2209
EC50 (VZV Ellen; Human alphaherpesvirus 3, HFF, read-out: EC50 (50% reduction in the Cytopathic Effect of the virus)): 7 nM
TI (therapeutic index derived from EC50/CC50) (VZV Ellen; VZV Ellen, HFF cells): 31
TI (therapeutic index derived from EC50/CC50) (HSV1 E377; HSV1 E377, HFF cells): 469
EC50 (HSV1 E377; [2]): 20 nM
TI (therapeutic index derived from CC50/EC50) (HSV2 G; HSV2 G, HFF cells): >14
EC50 (HSV2 G; Human alphaherpesvirus 2, HFF, read-out: EC50 (50% reduction in the Cytopathic Effect of the virus)): 140 nM
EC50 (mCMV Smith): < 0.3 nM
TI (therapeutic index derived from EC50/CC50) (mCMV Smith; mCMV Smith): >3125
EC50 (hCMV1 AD169; [3]): < 10 nM
TI (therapeutic index derived from EC50/CC50) (hCMV1 AD169; hCMV1 AD169, HFF cells): >19
Therapeutic index EC90/HFF Cytotoxicity 50% [1, 4]: >13
EC90 ([1]; Human betaherpesvirus 5, AD169, HFF): < 20 nM

N.Nc1ccn(C[C@@H](CO)OCP(=O)(O)OCCCS(=O)(=O)CCCCCCCCCCCCCCC2CCC2)c(=O)n1 [Compound 123, Ammonium 3-((14-cyclobutyltetradecyl)sulfonyl)propyl (S)-(((1-(4-amino-2-oxopyrimidin-1(2H)-yl)-3-hydroxypropan-2-yl)oxy)methyl)phosphonate]
TI (therapeutic index derived from EC50/CC50) (HSV1 strain DM2.1; HSV1 strain DM2.1 (footnote a), HFF cells): >142^a
EC50 (HSV1 strain DM2.1; [2]): < 50 nM
EC50 (hCMV1 AD169; [3]): < 50 nM
TI (therapeutic index derived from EC50/CC50) (hCMV1 AD169; hCMV1 AD169, HFF cells): >5

CCOC(=O)P(=O)(OCCCS(=O)(=O)CCCCCCCC1(C)COC1)OCCCS(=O)(=O)CCCCCCCC1(C)COC1 [Compound 124, Ethyl (bis(3-((7-(3-methyloxetan-3-yl)heptyl)sulfonyl)-propoxy)phosphoryl)formate]
TI (therapeutic index derived from EC50/CC50) (HSV1 E377; HSV1 E377, HFF cells): 1
EC50 (HSV1 E377; Human alphaherpesvirus 1, read-out: EC50 (50% reduction in the Cytopathic Effect of the virus), HSV1 E377, HFF cells): > 150000 nM
EC50 (hCMV1 AD169; [5]): > 150000 nM
TI (therapeutic index derived from EC50/CC50) (hCMV1 AD169; hCMV1 AD169, HFF cells): 1

CCCCCCCCCCCCCCCCCCS(=O)(=O)CCCOP(=O)(OCCCS(=O)(=O)CCCCCCCCCCCCCCCCCC)C(=O)OCC [Compound 125, Ethyl (bis(3-(octadecylsulfonyl)propoxy)phosphoryl)formate]
EC50 (hCMV1 AD169; [5]): 132000 nM
TI (therapeutic index derived from EC50/CC50) (hCMV1 AD169; hCMV1 AD169, HFF cells): >1

Nc1nc(O)c2ncn(COC(CO)CO)c2n1 [Ganciclovir, reference compound]
EC50 (hCMV2 GDGRK17): 150 nM
TI (therapeutic index derived from EC50/CC50) (hCMV2 GDGRK17): >1030
EC50 (mCMV Smith; mCMV Smith): 170 nM
TI (therapeutic index derived from EC50/CC50) (mCMV Smith; mCMV Smith): >882
EC50 (hCMV1 AD169; [5]): 1630 nM
TI (therapeutic index derived from EC50/CC50) (hCMV1 AD169; hCMV1 AD169, HFF cells): >92
Therapeutic index EC90/HFF Cytotoxicity 50% [1, 4]: 1
EC90 ([1]; Human betaherpesvirus 5, Human Cytomegalovirus Strain AD169 in HFF cells, read-out: EC90): > 150000 nM
